Reference: patent US10654860B2, “Tricyclic rho kinase inhibitors” (BRISTOL-MYERS SQUIBB COMPANY, priority 2016, dated 2020)
pIC50: −log10 of the molar value.

Target: ROCK2 (Homo sapiens (Human), UniProt O75116)
Assay: ROCK2 kinase inhibition assay (LABCHIP peptide phosphorylation)
Format: biochemical
Details: 5 μM ATP, 1.5 μM peptide substrate
Description: The effectiveness of compounds of the present invention as ROCK inhibitors can be determined in a 30 μL, assay containing 20 mM HEPES, pH 7.5, 20 mM MgCl2, 0.015% Brij-35, 4 mM DTT, 5 μM ATP and 1.5 μM peptide substrate (FITC-AHA-AKRRRLSSLRA-OH). Compounds were dissolved in DMSO so that the final concentration of DMSO was <2%, and the reaction was initiated with Rho kinase variants. After incubation, the reaction was terminated by the addition of EDTA and the phosphorylated and non-phosphorylated peptides separated using a LABCHIP® 3000 Reader (Caliper Life Sciences). […] Compounds were tested in dose-response format, and the inhibition of kinase activity was calculated at each concentration of compound. The inhibition data were fit using a curve-fitting program to determine the IC50; i.e., the concentration of compound required to inhibit 50% of kinase activity.
Representative Examples were tested in the ROCK2 assay described above and found having ROCK2 inhibitory activity. The ranges of the ROCK2 IC50 values are as follows: ROCK2 IC50: ++++(<10 nM)+++(10-100 nM)++(100-500 nM)+(500-2000 nM)

Sequence of ROCK2 (O75116 whole entry, species assumed): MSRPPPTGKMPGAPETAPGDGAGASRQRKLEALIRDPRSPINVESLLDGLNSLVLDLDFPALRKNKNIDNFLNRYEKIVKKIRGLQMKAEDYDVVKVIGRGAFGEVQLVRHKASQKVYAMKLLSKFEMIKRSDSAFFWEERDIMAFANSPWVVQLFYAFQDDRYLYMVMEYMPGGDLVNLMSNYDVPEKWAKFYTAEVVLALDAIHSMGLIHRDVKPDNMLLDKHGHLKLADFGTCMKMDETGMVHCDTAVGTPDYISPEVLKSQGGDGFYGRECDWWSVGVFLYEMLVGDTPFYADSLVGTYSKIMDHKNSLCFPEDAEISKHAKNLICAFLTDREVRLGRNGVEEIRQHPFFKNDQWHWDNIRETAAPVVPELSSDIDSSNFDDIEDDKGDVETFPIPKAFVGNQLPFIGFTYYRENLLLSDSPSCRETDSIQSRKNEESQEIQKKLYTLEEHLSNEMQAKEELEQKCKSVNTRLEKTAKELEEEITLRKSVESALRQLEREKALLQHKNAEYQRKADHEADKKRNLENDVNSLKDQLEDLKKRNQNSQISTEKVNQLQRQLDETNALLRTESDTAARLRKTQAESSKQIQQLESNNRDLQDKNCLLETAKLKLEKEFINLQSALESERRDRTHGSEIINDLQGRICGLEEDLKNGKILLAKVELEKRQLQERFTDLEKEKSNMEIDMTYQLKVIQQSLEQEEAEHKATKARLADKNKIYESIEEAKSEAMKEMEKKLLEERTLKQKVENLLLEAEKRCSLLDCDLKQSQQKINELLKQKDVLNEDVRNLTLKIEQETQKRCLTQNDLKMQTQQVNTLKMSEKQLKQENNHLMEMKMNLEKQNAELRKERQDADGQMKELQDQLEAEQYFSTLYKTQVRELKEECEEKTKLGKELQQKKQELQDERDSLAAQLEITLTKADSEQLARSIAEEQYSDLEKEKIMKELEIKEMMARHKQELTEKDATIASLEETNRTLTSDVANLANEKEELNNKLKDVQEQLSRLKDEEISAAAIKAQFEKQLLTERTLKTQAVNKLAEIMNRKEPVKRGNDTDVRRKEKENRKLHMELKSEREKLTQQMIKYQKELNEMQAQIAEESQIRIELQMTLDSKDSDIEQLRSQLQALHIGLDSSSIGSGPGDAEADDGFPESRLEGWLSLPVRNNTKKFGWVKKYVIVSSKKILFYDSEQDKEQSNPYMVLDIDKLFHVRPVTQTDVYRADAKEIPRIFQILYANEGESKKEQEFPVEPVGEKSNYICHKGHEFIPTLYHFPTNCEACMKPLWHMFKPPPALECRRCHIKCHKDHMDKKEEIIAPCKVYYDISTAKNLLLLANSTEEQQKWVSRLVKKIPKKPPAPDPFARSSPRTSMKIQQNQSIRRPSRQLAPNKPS

| Structure (SMILES) | pIC50 |
| --- | --- |
| O=C1N(c2ccc3c(c2)CCc2n[nH]cc2-3)CCC12Cc1ccccc1N2 (racemic) [Example 1, (rac)-1′-(4,5-dihydro-2H-benzo[e]indazol-7-yl)spiro[indoline-2,3′-pyrrolidin]-2′-one] | > 8.00 |
| COc1cccc(NC2CCN(c3ccc4c(n3)OCc3n[nH]cc3-4)C2=O)c1 (racemic) [Example 11, 1-(2,4-dihydropyrazolo[4′,3′:4,5]pyrano[2,3-b]pyridin-7-yl)-3-((3-methoxyphenyl)amino)pyrrolidin-2-one] | 7.00 to 8.00 |
| COc1cc(F)cc(NC2CCN(c3ccc4c(n3)OCc3n[nH]cc3-4)C2=O)c1 (racemic) [Example 12, 1-(2,4-dihydropyrazolo[4′,3′:4,5]pyrano[2,3-b]pyridin-7-yl)-3-((3-fluoro-5-methoxyphenyl)amino)pyrrolidin-2-one] | 7.00 to 8.00 |
| COc1cccc(NC2CCN(c3ccc4c(c3)OCc3n[nH]cc3-4)C2=O)c1 (racemic) [Example 13, 1-(2,4-dihydrochromeno[3,4-c]pyrazol-7-yl)-3-((3-methoxyphenyl)amino)pyrrolidin-2-one] | > 8.00 |
| O=C1C(Nc2ccc3ncsc3c2)CCN1c1ccc2c(n1)OCc1n[nH]cc1-2 (racemic) [Example 32, 3-(benzo[d]thiazol-6-ylamino)-1-(2,4-dihydropyrazolo[4′,3′:4,5]pyrano[2,3-b]pyridin-7-yl)pyrrolidin-2-one] | 5.70 to 6.30 |
| N#Cc1cccc(NC2CCN(c3ccc4c(n3)OCc3n[nH]cc3-4)C2=O)c1 (racemic) [Example 34, 3-((1-(2,4-dihydropyrazolo[4′,3′:4,5]pyrano[2,3-b]pyridin-7-yl)-2-oxopyrrolidin-3-yl)amino)benzonitrile] | 5.70 to 6.30 |
| O=C1C(Nc2cccc(-c3cnco3)c2)CCN1c1ccc2c(n1)OCc1n[nH]cc1-2 (racemic) [Example 35, 1-(2,4-dihydropyrazolo[4′,3′:4,5]pyrano[2,3-b]pyridin-7-yl)-3-((3-(oxazol-5-yl)phenyl)amino)pyrrolidin-2-one] | 5.70 to 6.30 |
| O=C1N(c2ccc3c(c2)CCc2n[nH]cc2-3)CCC12Cc1ccccc1N2 (single isomer, unassigned) [Example 6, 1′-(4,5-dihydro-2H-benzo[e]indazol-7-yl)spiro[indoline-2,3′-pyrrolidin]-2′-one] | > 8.00 |
| COc1cccc(NC2CCN(c3ccc4c(c3)OCc3n[nH]cc3-4)C2=O)c1 (single isomer, unassigned) [Example 10, 1-(2,4-dihydrochromeno[3,4-c]pyrazol-7-yl)-3-((3-methoxyphenyl)amino)pyrrolidin-2-one] | > 8.00 |
| O=C1N(c2ccc3c(c2)CCc2n[nH]cc2-3)CCC12Cc1ccccc1N2 (single isomer, unassigned) [Example 16, 1′-(4,5-dihydro-2H-benzo[e]indazol-7-yl)spiro[indoline-2,3′-pyrrolidin]-2′-one] | 7.00 to 8.00 |
| COc1cccc(NC2CCN(c3ccc4c(c3)OCc3n[nH]cc3-4)C2=O)c1 (single isomer, unassigned) [Example 17, 1-(2,4-dihydrochromeno[3,4-c]pyrazol-7-yl)-3-((3-methoxyphenyl)amino)pyrrolidin-2-one] | 7.00 to 8.00 |
| COc1cccc(CN2CCN(c3ccc4c(c3)CCc3n[nH]cc3-4)C2=O)c1 [Example 2, 1-(4,5-dihydro-2H-benzo[e]indazol-7-yl)-3-(3-methoxybenzyl)imidazolidin-2-one] | > 8.00 |
| COc1cccc(N[C@H]2CCN(c3ccc4c(c3)CCc3n[nH]cc3-4)C2=O)c1 [Example 3, (S)-1-(4,5-dihydro-21-benzo[e]indazol-7-yl)-3-((3-methoxyphenyl)amino)pyrolidin-2-one] | > 8.00 |
| COc1cccc(CNC(=O)Nc2ccc3c(n2)OCc2n[nH]cc2-3)c1 [Example 5, 1-(2,4-dihydropyrazolo[4′,3′:4,5]pyrano[2,3-b]pyridin-7-yl)-3-(3-methoxybenzyl)urea] | 7.00 to 8.00 |
| COc1cccc([C@@H](C)N2CCN(c3ccc4c(c3)CCc3n[nH]cc3-4)C2=O)c1 [Example 7, (R)-1-(4,5-dihydro-2H-benzo[e]indazol-7-yl)-3-(1-(3-methoxyphenyl)ethyl)imidazolidin-2-one] | > 8.00 |
| COc1cccc(CN2CCN(c3ccc4c(n3)CCc3n[nH]cc3-4)C2=O)c1 [Example 8, 1-(4,5-dihydro-2H-pyrazolo[4,3-f]quinolin-7-yl)-3-(3-methoxybenzyl)imidazolidin-2-one] | > 8.00 |
| COc1cccc(N[C@@H]2CCN(c3ccc4c(c3)CCc3n[nH]cc3-4)C2=O)c1 [Example 9, (R)-1-(4,5-dihydro-2H-benzo[e]indazol-7-yl)-3-((3-methoxyphenyl)amino)pyrrolidin-2-one] | > 8.00 |

| Structure (SMILES) | pIC50 |
| --- | --- |
| COc1cccc(CN2CCN(c3ccc4c(c3)OCc3n[nH]cc3-4)C2=O)c1 [Example 14, 1-(2,4-dihydrochromeno[3,4-c]pyrazol-7-yl)-3-(3-methoxybenzyl)imidazolidin-2-one] | > 8.00 |
| COc1cccc(CN2CCN(c3ccc4c(n3)OCc3n[nH]cc3-4)C2=O)c1 [Example 15, 1-(2,4-dihydropyrazolo[4′,3′:4,5]pyrano[2,3-b]pyridin-7-yl)-3-(3-methoxybenzyl)imidazolidin-2-one] | > 8.00 |
| COc1cc(F)cc(CN2CCN(c3ccc4c(n3)OCc3n[nH]cc3-4)C2=O)c1 [Example 18, 1-(2,4-dihydropyrazolo[4′,3′:4,5]pyrano[2,3-b]pyridin-7-yl)-3-(3-fluoro-5-methoxybenzyl)imidazolidin-2-one] | 7.00 to 8.00 |
| COc1cccc(CN2CCN(c3ccc4c(c3)CCc3n[nH]c(C)c3-4)C2=O)c1 [Example 19, 1-(3-methoxybenzyl)-3-(1-methyl-4,5-dihydro-2H-benzo[e]indazol-7-yl)imidazolidin-2-one] | 7.00 to 8.00 |
| Cc1ccc(F)c(CN2CCN(c3ccc4c(n3)OCc3n[nH]cc3-4)C2=O)c1 [Example 20, 1-(2,4-dihydropyrazolo[4′,3′:4,5]pyrano[2,3-b]pyridin-7-yl)-3-(2-fluoro-5-methylbenzyl)imidazolidin-2-one] | 7.00 to 8.00 |
| O=C1N(Cc2cc(F)cc(F)c2)CCN1c1ccc2c(n1)OCc1n[nH]cc1-2 [Example 21, 1-(3,5-difluorobenzyl)-3-(2,4-dihydropyrazolo[4′,3′:4,5]pyrano[2,3-b]pyridin-7-yl)imidazolidin-2-one] | 7.00 to 8.00 |
| Cc1c(F)cccc1CN1CCN(c2ccc3c(n2)OCc2n[nH]cc2-3)C1=O [Example 22, 1-(2,4-dihydropyrazolo[4′,3′:4,5]pyrano[2,3-b]pyridin-7-yl)-3-(3-fluoro-2-methylbenzyl)imidazolidin-2-one] | 7.00 to 8.00 |
| NC(=O)c1cccc(CN2CCN(c3ccc4c(n3)OCc3n[nH]cc3-4)C2=O)c1 [Example 23, ((3-(2,4-dihydropyrazolo[4′,3′:4,5]pyrano[2,3-b]pyridin-7-yl)-2-oxoimidazolidin-1-yl)methyl)benzamide] | 7.00 to 8.00 |
| Cc1c(F)cccc1NC1CCN(c2ccc3c(n2)OCc2n[nH]cc2-3)C1=O (stereo not shown) [Example 24, 1-(2,4-dihydropyrazolo[4′,3′:4,5]pyrano[2,3-b]pyridin-7-yl)-3-((3-fluoro-2-methylphenyl)amino)pyrrolidin-2-one] | 6.30 to 7.00 |
| O=C1N(Cc2cccc(F)c2)CCN1c1ccc2c(n1)OCc1n[nH]cc1-2 [Example 25, 1-(2,4-dihydropyrazolo[4′,3′:4,5]pyrano[2,3-b]pyridin-7-yl)-3-(3-fluorobenzyl)imidazolidin-2-one] | 6.30 to 7.00 |
| Cc1cc(CN2CCN(c3ccc4c(n3)OCc3n[nH]cc3-4)C2=O)ccc1F [Example 26, 1-(2,4-dihydropyrazolo[4′,3′:4,5]pyrano[2,3-b]pyridin-7-yl)-3-(4-fluoro-3-methylbenzyl)imidazolidin-2-one] | 6.30 to 7.00 |
| COc1cccc(CN2CCN(c3ccc4c(n3)OCc3n[nH]cc3-4)C2=O)c1F [Example 27, 1-(2,4-dihydropyrazolo[4′,3′:4,5]pyrano[2,3-b]pyridin-7-yl)-3-(2-fluoro-3-methoxybenzyl)imidazolidin-2-one] | 6.30 to 7.00 |
| Cc1cc(F)ccc1CN1CCN(c2ccc3c(n2)OCc2n[nH]cc2-3)C1=O [Example 28, 1-(2,4-dihydropyrazolo[4′,3′:4,5]pyrano[2,3-b]pyridin-7-yl)-3-(4-fluoro-2-methylbenzyl)imidazolidin-2-one] | 6.30 to 7.00 |
| O=C1N(Cc2ccc(F)c(F)c2)CCN1c1ccc2c(n1)OCc1n[nH]cc1-2 [Example 29, 1-(3,4-difluorobenzyl)-3-(2,4-dihydropyrazolo[4′,3′:4,5]pyrano[2,3-b]pyridin-7-yl)imidazolidin-2-one] | 6.30 to 7.00 |
| O=C1N(Cc2cc(F)ccc2F)CCN1c1ccc2c(n1)OCc1n[nH]cc1-2 [Example 30, 1-(2,5-difluorobenzyl)-3-(2,4-dihydropyrazolo[4′,3′:4,5]pyrano[2,3-b]pyridin-7-yl)imidazolidin-2-one] | 6.30 to 7.00 |
| CC(C)(C)c1cccc(CN2CCN(c3ccc4c(n3)OCc3n[nH]cc3-4)C2=O)c1 [Example 31, 1-(3-(tert-butyl)benzyl)-3-(2,4-dihydropyrazolo[4′,3′:4,5]pyrano[2,3-b]pyridin-7-yl)imidazolidin-2-one] | 5.70 to 6.30 |
| O=C1N(Cc2c(F)cccc2F)CCN1c1ccc2c(n1)OCc1n[nH]cc1-2 [Example 33, 1-(2,6-difluorobenzyl)-3-(2,4-dihydropyrazolo[4′,3′:4,5]pyrano[2,3-b]pyridin-7-yl)imidazolidin-2-one] | 5.70 to 6.30 |
